Data taken from ChEMBL document CHEMBL1132134, “The LMC delta opioid recognition pharmacophore: comparison of SNC80 and oxymorphindole” (Bioorg Med Chem Lett, 1999).

How the values were obtained:
[1] = target: Delta-type opioid receptor (Rattus norvegicus, UniProt P33533); assay: Binding affinity evaluated by inhibition of binding of [3H]DADLE to delta opioid receptor of rat brain
[2] = target: Opioid receptors; mu & delta (Rattus norvegicus) (UniProt P33533+P33535); assay: Selectivity ratio against mu opioid receptor to that of delta opioid receptor; assay type: protein assay
Opioid receptors; mu & delta (Rattus norvegicus), sequence (P33533 whole entry, looked up): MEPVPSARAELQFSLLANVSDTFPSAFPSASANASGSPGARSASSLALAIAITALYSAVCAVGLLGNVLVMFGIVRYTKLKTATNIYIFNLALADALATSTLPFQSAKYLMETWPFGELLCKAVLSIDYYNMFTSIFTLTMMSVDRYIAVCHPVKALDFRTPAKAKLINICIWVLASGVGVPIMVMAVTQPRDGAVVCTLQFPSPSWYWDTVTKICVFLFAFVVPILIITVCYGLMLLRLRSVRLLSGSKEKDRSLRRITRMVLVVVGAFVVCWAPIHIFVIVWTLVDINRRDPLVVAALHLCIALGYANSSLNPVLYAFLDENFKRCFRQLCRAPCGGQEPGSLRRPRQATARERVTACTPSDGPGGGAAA
Opioid receptors; mu & delta (Rattus norvegicus), sequence (P33535 whole entry, looked up): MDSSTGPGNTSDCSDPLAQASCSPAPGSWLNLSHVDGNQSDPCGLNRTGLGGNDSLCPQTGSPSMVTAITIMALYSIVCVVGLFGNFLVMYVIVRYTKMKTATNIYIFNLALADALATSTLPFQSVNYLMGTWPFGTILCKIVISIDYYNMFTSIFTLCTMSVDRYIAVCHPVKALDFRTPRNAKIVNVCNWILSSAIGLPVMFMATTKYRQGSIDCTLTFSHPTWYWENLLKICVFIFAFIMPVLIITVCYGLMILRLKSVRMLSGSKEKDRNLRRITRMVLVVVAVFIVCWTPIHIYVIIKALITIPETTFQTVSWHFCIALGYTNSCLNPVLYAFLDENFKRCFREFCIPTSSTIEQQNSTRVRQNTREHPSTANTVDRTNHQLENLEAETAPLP

Delta-type opioid receptor, sequence (P33533 whole entry): as the sequence (P33533 whole entry, looked up) above

| SMILES | Ki [1] [nM] | Selectivity [2] |
| --- | --- | --- |
| O=C1/C(=C\c2ccc(-c3ccccc3)cc2)C[C@@]2(O)C3Cc4ccc(O)c5c4C2(CCN3CC2CC2)C1O5 (stereo not given in full) | 47 | 4.2 |
| O=C1/C(=C/c2cccc3ccccc23)C[C@@]2(O)C3Cc4ccc(O)c5c4C2(CCN3CC2CC2)C1O5 (stereo not given in full) | 4.6 | 7.5 |
| O=C1/C(=C/c2ccc3ccccc3c2)C[C@@]2(O)C3Cc4ccc(O)c5c4C2(CCN3CC2CC2)C1O5 (stereo not given in full) | 39 | 0.6 |
| O=C1/C(=C\c2ccc3ccccc3c2)C[C@@]2(O)C3Cc4ccc(O)c5c4C2(CCN3CC2CC2)C1O5 (stereo not given in full) | 16 | 3 |
| O=C1/C(=C\c2ccccc2)C[C@@]2(O)[C@H]3Cc4ccc(O)c5c4[C@@]2(CCN3CC2CC2)[C@H]1O5 | 3.7 | 8.6 |
| O=C1/C(=C\c2c3ccccc3cc3ccccc23)C[C@@]2(O)C3Cc4ccc(O)c5c4C2(CCN3CC2CC2)C1O5 (stereo not given in full) | 2.4 | 14 |
| O=C1/C(=C/c2ccc(-c3ccccc3)cc2)C[C@@]2(O)C3Cc4ccc(O)c5c4C2(CCN3CC2CC2)C1O5 (stereo not given in full) | 75 | 0.6 |
| O=C1/C(=C/c2ccccc2)C[C@@]2(O)[C@H]3Cc4ccc(O)c5c4[C@@]2(CCN3CC2CC2)[C@H]1O5 [BNTX] | 6.2 | 4 |
| O=C1/C(=C\c2cccc3ccccc23)C[C@@]2(O)C3Cc4ccc(O)c5c4C2(CCN3CC2CC2)C1O5 (stereo not given in full) | 0.7 | 15 |
| O=C1/C(=C/c2c3ccccc3cc3ccccc23)C[C@@]2(O)C3Cc4ccc(O)c5c4C2(CCN3CC2CC2)C1O5 (stereo not given in full) | 17 | 6.4 |
